From patent US8324457B2, “Soybean event 3560.4.3.5 and compositions and methods for the identification and/or detection thereof” (Pioneer Hi-Bred International, Inc., priority 2006, dated 2012)
Read-outs that look alike come from different tables or passages of the source.

Tests used:
3560.4.3.5 soybean [1] = assay: ALS inhibitor herbicide tolerance field trials, crop response rating; set-up: species or system Glycine max; conditions: in vivo
From the text: ALS inhibitor herbicide tolerance of the gm-hra gene was compared to sulfonylurea tolerant soybeans (STS®) by growing T4 plants of event 3560.4.3.5 and a STS® cultivar. […] Spray treatments were applied at the V3 growth stage and consisted of one of the following: an unsprayed control, 8.8 g ai ha^−1 rimsulfuron (N-[[(4,6-dimethoxy-2-pyrimidinyl)amino]carbonyl]-3-(ethylsulfonyl)-2-pyridinesulfonamide), 8.8 g ai ha^−1 tribenuron methyl (methyl 2-[[[[(4-methoxy-6-methyl-1,3,5-triazin-2-yl)methylamino]carbonyl]amino]sulfonyl]benzoate), or 30.0 g ai ha^−1 chlorimuron ethyl (ethyl 2-[[[[(4-chloro-6-methoxypyrimidin-2-yl)amino]carbonyl]amino]sulfonyl]benzoate)+9.67 g ai ha^−1 thifensulfuron methyl. […] Plots were evaluated for crop response at 7 DAT and 14 DAT, and assigned a visual response score from 0% to 100% response. Crop response data were analyzed using the mixed model ANOVA procedure of SAS.
ALS inhibitor herbicide tolerance trials were completed at two separate locations. Plants from the T5 generation of event 3560.4.3.5 and a STS® cultivar were grown in a RCB design in a split plot arrangement with three replications of paired 2.4 m rows (76.2 cm row spacing). […] Crop response data were analyzed using the mixed model ANOVA procedure of SAS. […]

[2] = tested on: transgenic event 3560.4.3.5 soybean; assay: Greenhouse herbicide tolerance of T0 and T1 plants, visual rating 10 days after spray; format: in vivo, Glycine max
From the text: Selected events were advanced at the T1 generation for herbicide tolerance confirmation in greenhouses. Plants were sprayed at the V3 growth stage with either 1.68 kg ae ha^−1 glyphosate, 60 g ai ha^−1 thifensulfuron methyl(methyl 3-[[[[(4-methoxy-6-methyl-1,3,5-triazin-2-yl)amino]carbonyl]amino]sulfonyl]-2-thiophenecarboxylate), or a sequential […] […] […] Since the T1 events were segregating, only the non-susceptible plants were scored, and an average rating of tolerant plants within each event was calculated.
(§1) T0 3560.4.3.5 soybean were evaluated for glyphosate tolerance.
The 3560.4.3.5 event was advanced to the T1 generation in a greenhouse to confirm herbicide tolerance. The 3560.4.3.5 event had tolerance after application of 1.68 kg ae ha^−1 glyphosate, after application of 60.0 g ai ha^−1 thifensulfuron methyl, and after a sequential application of 70 g ai ha^−1 thifensulfuronmethyl at V3, […]

[3] = tested on: untransformed parental line; assay: Greenhouse glyphosate spray of the control line, visual rating; format: in vivo, Glycine max; conditions: either glyphosate application rate of the T0 test; 1 to 9 scale, 1 = dead plant
Description: Plants were rated using a 1 to 9 scale ten days after treatment (DAT), where 1=dead plant to 9=no observed spray response.
as §1

3560.4.3.5 soybean [4] = format: in vivo, Glycine max; conditions: glyphosate 1.68 kg ae ha^−1, ALS inhibitors 5.8 + 4.4 g ai ha^−1
Description: The second set of tolerance experiments were designed to measure yield potential of 3560.4.3.5 soybean after application of common field use rates of glyphosate and/or ALS inhibitor herbicides. […] One experiment was grown at field A and two experiments were grown at field B and C (which were separated by planting date and physical distance of field locations.) In addition, the two fields had different environmental influence; one field experienced drought stress through the spring and early summer, the other was well irrigated throughout the growing season. Treatments were randomized within each of the replications and sprayed at the VC, V2, R2, or R5 growth stages. Treatments consisted of 1.68 kg ai ha^−1 glyphosate, 5.8 g ai ha^−1 chlorimuron ethyl+4.4 g ai ha^−1 thifensulfuron methyl, and 1.68 kg ai ha^−1 glyphosate+5.8 g ai ha^−1 chlorimuron ethyl+4.4 g ai ha^−1 thifensulfuron methyl. […] Plots were harvested and yield was calculated for each plot.
The second set of experiments conducted with event 3560.4.3.5 were designed to measure yield potential after application of different herbicides at field use rates that would be commonly utilized for soybean production. Across the glyphosate, ALS inhibitor, and glyphosate plus ALS inhibitor treatments there was minimal (10% or less) to essentially no response at 7, 14, and 28 DAT (Table 20). When yield data was collected, there were no significant yield differences detected for any of the herbicide treatments applied at different the growth stages (Table 20). In addition, the replications that received herbicide treatments were not statistically different from the unsprayed control replications for yield (Table 20). Based upon multiple year herbicide tolerance trials, it can be concluded that event 3560.4.3.5 had excellent tolerance to field use rates of glyphosate, ALS inhibitor, and glyphosate plus ALS inhibitor herbicides. In addition, yield potential was not affected when event 3560.4.3.5 was sprayed with glyphosate, ALS inhibitor, and glyphosate plus ALS inhibitor chemistries at different vegetative and reproductive growth stages.

3560.4.3.5 soybean [5] = assay: Tolerance to glyphosate tank mixes with other pesticides at V2 or R2, crop response rating; conditions: glyphosate 3.36 kg ae ha-1, chlorpyrifos 560.4, bentazon 1120.9, imazethapyr 141.3, fomesafen 263.4, tribenuron-methyl 17.5, thifensulfuron-methyl 17.5 g ai ha-1
Description: The first experiments were grown in an RCB design of three replications of paired 3.7 m rows (76.2 cm row spacing), blocked by replication with randomized spray treatments within each replication. […] Visual response ratings (0% to 100%) were assigned to each plot at 7 DAT, 14 DAT, and 28 DAT. Crop response data were analyzed using the GLM and mixed model ANOVA procedures of SAS.

3560.4.3.5 soybean [6] = assay: Field glyphosate tolerance trials, T3 and T4 plants, visual rating; format: in vivo, Glycine max
Description: (§2) The 3560.4.3.5 soybean event was evaluatead for glyphosate tolerance. […] Plots were evaluated for crop response at 7 and 14 days after treatment (DAT), and rated using a 1-9 score. Crop response data were analyzed using the general linear model (GLM) and mixed model analysis of variance (ANOVA) procedures of SAS. (The SAS System is a registered trademark of SAS Institute, Inc., Cary, N.C., USA)
Selected T4 lines were tested for glyphosate tolerance. This experiment was a RCB design in a split plot arrangement with two replications of individual 1.2 m rows (76.2 cm row spacing). At the V3 growth stage, 6.72 kg ae ha^−1 glyphosate was applied to one block, while another was unsprayed for use as a control. The third block received a sequential application of 6.72 kg ae ha^−1 glyphosate at V3 followed by 6.72 kg ae ha^−1 glyphosate at R1. Plots were evaluated for crop response at 7 DAT and 14 DAT, and assigned a visual response score from 0% to 100% response, where 0%=no response observed to 100%=plot completely dead.
(§3) The T3 plants from the 3560.4.3.5 plants were sprayed in a glyphosate herbicide tolerance field trial. […] The untransformed control line was susceptible to any glyphosate application and was consistently rated as a 1. 3560.4.3.5 soybean T4 plants were advanced for additional glyphosate tolerance testing.

[7] = tested on: untransformed control line; assay: Field glyphosate tolerance trial, control line; format: in vivo, Glycine max; conditions: any glyphosate application (3.36, 6.72 or 13.44 kg ae ha-1), 1 to 9 scale
Description: as §2, §3

[8] = tested on: seedlings that lacked the event; assay: Chlorsulfuron herbicide seedling test on germination paper; format: in vivo, Glycine max; conditions: germination paper saturated with 20 ml/l of a 66.7 mg/l chlorsulfuron stock, pH 7.5; observed 10 days after initial treatment
[9] = tested on: seedlings that possessed the 3560.4.3.5 event; assay: as above; format: in vivo, Glycine max; conditions: germination paper saturated with 20 ml/l of a 66.7 mg/l chlorsulfuron stock, pH 7.5; observed 10 days after initial treatment

CCS(=O)(=O)c1cccnc1S(=O)(=O)NC(=O)Nc1nc(OC)cc(OC)n1 [Rimsulfuron, N-[[(4,6-dimethoxy-2-pyrimidinyl)amino]carbonyl]-3-(ethylsulfonyl)-2-pyridinesulfonamide]
crop response of 3560.4.3.5 soybean compared to STS, in words (3560.4.3.5 soybean [1]): significantly lower crop response compared to STS®

COC(=O)c1ccccc1S(=O)(=O)NC(=O)Nc1nc(C)nc(OC)n1 [Metsulfuron methyl, methyl 2-[[[[(4-methoxy-6-methyl-1,3,5-triazin-2-yl)amino]carbonyl]amino]sulfonyl]benzoate]
crop response of 3560.4.3.5 soybean compared to STS, in words (3560.4.3.5 soybean [1]): significantly lower crop response compared to STS®

COC(=O)c1sccc1S(=O)(=O)NC(=O)Nc1nc(C)nc(OC)n1 [Thifensulfuron methyl, methyl 3-[[[[(4-methoxy-6-methyl-1,3,5-triazin-2-yl)amino]carbonyl]amino]sulfonyl]-2-thiophenecarboxylate]
average visual response rating ([2]; T1 tolerant plants, thifensulfuron methyl 60.0 g ai ha-1 + NIS + AMS at V3, 10 days after application, scale to 9 = no response): 7.0 | average visual response rating, first score of sequential application ([2]; T1 tolerant plants, thifensulfuron methyl 70 g ai ha-1 + NIS + AMS at V3, 10 days after the V3 application, scale to 9 = no response): 8.0

O=C(O)CNCP(=O)(O)O [Glyphosate]
visual rating [3]: 1 | crop response rating 7 DAT (LSMean) (3560.4.3.5 soybean [4]; Application Stage R2): 2.0% | crop response rating 14 DAT (LSMean) (3560.4.3.5 soybean [4]; Application Stage R2): 0.6% | crop response rating 28 DAT (LSMean) (3560.4.3.5 soybean [4]; Application Stage R2): 0.0% | crop response rating 7 DAT (LSMean) (3560.4.3.5 soybean [4]; Application Stage R5): 0.3% | crop response rating 14 DAT (LSMean) (3560.4.3.5 soybean [4]; Application Stage R5): 0.3% | crop response rating 28 DAT (LSMean) (3560.4.3.5 soybean [4]; Application Stage R5): 0.0% | crop response rating 7 DAT (LSMean) (3560.4.3.5 soybean [4]; Application Stage V2): 5.3% | crop response rating 14 DAT (LSMean) (3560.4.3.5 soybean [4]; Application Stage V2): 2.8% | crop response rating 28 DAT (LSMean) (3560.4.3.5 soybean [4]; Application Stage V2): 0.6% | crop response rating 7 DAT (LSMean) (3560.4.3.5 soybean [4]; Application Stage VC): 1.6% | crop response rating 14 DAT (LSMean) (3560.4.3.5 soybean [4]; Application Stage VC): 0.8% | crop response rating 28 DAT (LSMean) (3560.4.3.5 soybean [4]; Application Stage VC): 0.6% | LSMean crop response rating, 7 DAT Average (3560.4.3.5 soybean [5]; applied at R2): 1.7% | LSMean crop response rating, 14 DAT Average (3560.4.3.5 soybean [5]; applied at R2): 0.6% | LSMean crop response rating, 28 DAT Average (3560.4.3.5 soybean [5]; applied at R2): 0.0% | LSMean crop response rating, 14 DAT Average (3560.4.3.5 soybean [5]; applied at V2): 3.3% | LSMean crop response rating, 28 DAT Average (3560.4.3.5 soybean [5]; applied at V2): 0.6% | LSMean crop response rating, 7 DAT Average (3560.4.3.5 soybean [5]; applied at V2, + NIS + AMS, 0% = no response, 100% = plot completely dead): 3.9% | average visual response rating ([2]; T0 plants, glyphosate 1.68 kg ae ha-1 + NIS + AMS, 10 days after application, greenhouse, scale 0 = dead plant to 9 = no response detected): 7.0 | average visual response rating ([2]; T0 plants, glyphosate 3.36 kg ae ha-1 + NIS + AMS, 10 days after application, greenhouse, scale 0 = dead plant to 9 = no response detected): 6.5 | average visual response rating, second score of sequential application ([2]; T1 tolerant plants, 70 g ai ha-1 thifensulfuron methyl at V3 followed by glyphosate 1.68 kg ae ha-1 at V6, 10 days after the V6 glyphosate application, scale to 9 = no response): 8.0 | average visual response rating ([2]; T1 tolerant plants, glyphosate 1.68 kg ae ha-1 + NIS + AMS at V3, 10 days after application, scale to 9 = no response): 7.0 | LSMean visual rating (3560.4.3.5 soybean [6]; T3 plants, glyphosate 3.36 kg ae ha-1, 7 DAT, 1 = completely dead plot to 9 = no response): 8.0 | LSMean visual rating (3560.4.3.5 soybean [6]; T3 plants, glyphosate 6.72 kg ae ha-1, 7 DAT, 1 = completely dead plot to 9 = no response): 6.7 | LSMean visual rating (3560.4.3.5 soybean [6]; T3 plants, glyphosate 13.44 kg ae ha-1, 7 DAT, 1 = completely dead plot to 9 = no response): 5.7 | LSMean visual rating (3560.4.3.5 soybean [6]; T4 plants, glyphosate 6.72 kg ae ha-1 at V3, 7 DAT, 1 to 9 scale): 6.8 | LSMean visual rating (3560.4.3.5 soybean [6]; T4 plants, glyphosate 6.72 kg ae ha-1 at V3, 14 DAT, 1 to 9 scale): 7.8 | LSMean visual rating (3560.4.3.5 soybean [6]; T4 plants, sequential glyphosate 6.72 kg ae ha-1 at V3 then 6.72 at R1, 7 DAT after the R1 application, 1 to 9 scale): 7.8 | LSMean visual rating (3560.4.3.5 soybean [6]; T4 plants, sequential glyphosate 6.72 kg ae ha-1 at V3 then 6.72 at R1, 14 DAT after the R1 application, 1 to 9 scale): 7.7 | visual rating [7]: 1

COc1nc(C)nc(NC(=O)NS(=O)(=O)c2ccccc2Cl)n1 [chlorsulfuron, 2-chloro-N-[[(4-methoxy-6-methyl-1,3,5-triazin-2-yl)amino]-carbonyl]benzenesulfonamide]
seedling response in chlorsulfuron solution [8]: created hooked unifoliolate leaves that did not expand and develop any further | seedling response in chlorsulfuron solution [9]: germinated and grew normally
